Read-outs that look alike come from different tables or passages of the source. Positions of bridges follow the written chain, without caps; N, C: chain ends. Non-standard residues stand in square brackets, D forms with d. Residues, ends and D or L forms follow the SMILES beside them. Phe(3,4-F2) = N[C@@H](Cc1ccc(F)c(F)c1)C(=O)O; Phe(4-CH2NH2) = NCc1ccc(C[C@H](N)C(=O)O)cc1; Phe(3-Cl) = N[C@@H](Cc1cccc(Cl)c1)C(=O)O; Phe(2-Cl) = N[C@@H](Cc1ccccc1Cl)C(=O)O; Phe(3-F) = N[C@@H](Cc1cccc(F)c1)C(=O)O; Phe(3-Me) = Cc1cccc(C[C@H](N)C(=O)O)c1; Phe(2-Me) = Cc1ccccc1C[C@H](N)C(=O)O; NMeF = CN[C@@H](Cc1ccccc1)C(=O)O; NMeNle = CCCC[C@H](NC)C(=O)O; Sar = CNCC(=O)O
Columns and labels:
[1] = molecular target: T1, LK35.2-hPD-L1 cells / PE-labeled PD-1-Ig (Homo sapiens, UniProt Q9NZQ7); assay: LK35.2-hPD-L1 cell binding high-content screening assay; format: cell-based; conditions: cell line of CBA not given (LK35.2-hPD-L1 or 293T-hPD-L1)
T1 construct: expressed in transfected cells; host or cells: LK35.2 mouse B cell line
T1 sequence (Q9NZQ7 19-290): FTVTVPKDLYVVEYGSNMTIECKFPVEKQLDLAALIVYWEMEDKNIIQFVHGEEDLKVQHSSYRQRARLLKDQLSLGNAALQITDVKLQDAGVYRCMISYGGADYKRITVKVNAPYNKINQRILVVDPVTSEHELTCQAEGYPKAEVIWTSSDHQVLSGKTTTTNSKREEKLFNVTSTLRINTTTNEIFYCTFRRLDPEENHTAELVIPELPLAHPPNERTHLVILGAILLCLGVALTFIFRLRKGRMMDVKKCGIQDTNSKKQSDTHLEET
Method in brief: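 Readout: high-content imaging of PE-PD-1-Ig bound to LK35.2-hPD-L1 cells. Cells plated overnight (RPMI/10% FCS); compound + 1 nM PE-PD-1-Ig, 1 h, 37 °C; 3× dPBS wash before imaging.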

Human PD-L1/PD-1 = molecular target: T2, Human PD-L1/PD-1 (Homo sapiens, UniProt Q9NZQ7); assay: HTRF PD-1-Ig/PD-L1-His binding assay (human PD-L1)
T2 construct: made in house; host or cells: HEK293T
T2 sequence (Q9NZQ7 with tags, fused parts or gaps): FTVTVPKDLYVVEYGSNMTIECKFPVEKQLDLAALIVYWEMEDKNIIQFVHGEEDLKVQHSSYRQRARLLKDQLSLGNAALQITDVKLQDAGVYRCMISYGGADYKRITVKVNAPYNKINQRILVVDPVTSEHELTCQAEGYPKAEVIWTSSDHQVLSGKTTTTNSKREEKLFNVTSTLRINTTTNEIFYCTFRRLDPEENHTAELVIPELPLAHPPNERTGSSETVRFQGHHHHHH
Method in brief: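 Steps: truncated PD-1-Ig and PD-L1-His fusions are incubated in dPBS containing 0.1% (w/v) BSA and 0.05% (v/v) Tween-20. Detection antibodies are then added (Eu cryptate anti-Ig at 1 nM final, APC anti-His at 20 nM final), and time-resolved FRET is measured.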

[2] = cluster symbol, read-out: CBA IC50 cluster
[3] = cluster symbol, read-out: HTRF IC50 cluster

| SMILES | IC50 [1, 2] | IC50 (Human PD-L1/PD-1; [3]) | IC50 ([1]; read-out: CBA IC50 value) | IC50 (Human PD-L1/PD-1; read-out: HTRF IC50 value) |
| --- | --- | --- | --- | --- |
| CCCC[C@H]1C(=O)N(C)CC(=O)N[C@@H](CC(=O)O)C(=O)N[C@@H](C(C)C)C(=O)N(C)[C@@H](Cc2ccccc2)C(=O)N[C@@H](Cc2ccc(CN)cc2)C(=O)N(C)CC(=O)N[C@@H](Cc2c[nH]c3ccccc23)C(=O)N[C@@H](Cc2ccc(O)cc2)C(=O)N[C@@H](CC(C)C)C(=O)N[C@H](C(=O)NCC(N)=O)CSCC(=O)N[C@@H](Cc2cccc(F)c2)C(=O)N(C)[C@@H](Cc2ccccc2)C(=O)N1C [Example 3124] ({CH2CO}-[Phe(3-F)][NMeF][NMeNle][Sar]DV[NMeF][Phe(4-CH2NH2)][Sar]WYLCG-NH2; thioether N-13) | 0.158 to 4.71 nM | 6.76 to 30.3 nM | – | – |
| CCCC[C@H]1C(=O)N(C)CC(=O)N[C@@H](CC(=O)O)C(=O)N[C@@H](C(C)C)C(=O)N(C)[C@@H](Cc2ccccc2)C(=O)N[C@@H](Cc2ccc(O)cc2)C(=O)N(C)CC(=O)N[C@@H](Cc2c[nH]c3ccccc23)C(=O)N[C@@H](Cc2ccc(O)cc2)C(=O)N[C@@H](CC(C)C)C(=O)N[C@H](C(=O)NCC(N)=O)CSCC(=O)N[C@@H](Cc2cccc(F)c2)C(=O)N(C)[C@@H](Cc2ccccc2)C(=O)N1C [Example 3125] ({CH2CO}-[Phe(3-F)][NMeF][NMeNle][Sar]DV[NMeF]Y[Sar]WYLCG-NH2; thioether N-13) | 0.158 to 4.71 nM | 6.76 to 30.3 nM | – | – |
| CCCC[C@H]1C(=O)N(C)CC(=O)N[C@@H](CC(=O)O)C(=O)N[C@@H](C(C)C)C(=O)N(C)[C@@H](Cc2ccccc2)C(=O)N[C@@H](Cc2ccc(O)cc2)C(=O)N(C)CC(=O)N[C@@H](Cc2c[nH]c3ccccc23)C(=O)N[C@@H](Cc2ccc(O)cc2)C(=O)N[C@@H](CC(C)C)C(=O)N[C@H](C(=O)NCC(N)=O)CSCC(=O)N[C@@H](Cc2ccc(F)c(F)c2)C(=O)N(C)[C@@H](Cc2ccccc2)C(=O)N1C [Example 3130] ({CH2CO}-[Phe(3,4-F2)][NMeF][NMeNle][Sar]DV[NMeF]Y[Sar]WYLCG-NH2; thioether N-13) | 0.158 to 4.71 nM | 6.76 to 30.3 nM | – | – |
| CCCC[C@H]1C(=O)N(C)CC(=O)N[C@@H](CC(=O)O)C(=O)N[C@@H](C(C)C)C(=O)N[C@@H](Cc2cccc(Cl)c2)C(=O)N[C@@H](Cc2ccc(O)cc2)C(=O)N(C)CC(=O)N[C@@H](Cc2c[nH]c3ccccc23)C(=O)N[C@@H](Cc2ccc(O)cc2)C(=O)N[C@@H](CC(C)C)C(=O)N[C@H](C(=O)NCC(N)=O)CSCC(=O)N[C@@H](Cc2ccccc2)C(=O)N(C)[C@@H](Cc2ccccc2)C(=O)N1C [Example 3131] ({CH2CO}-F[NMeF][NMeNle][Sar]DV[Phe(3-Cl)]Y[Sar]WYLCG-NH2; thioether N-13) | > 74.3 nM | > 30.5 nM | – | – |
| CCCC[C@H]1C(=O)N(C)CC(=O)N[C@@H](CC(=O)O)C(=O)N[C@@H](C(C)C)C(=O)N[C@@H](Cc2ccccc2Cl)C(=O)N[C@@H](Cc2ccc(O)cc2)C(=O)N(C)CC(=O)N[C@@H](Cc2c[nH]c3ccccc23)C(=O)N[C@@H](Cc2ccc(O)cc2)C(=O)N[C@@H](CC(C)C)C(=O)N[C@H](C(=O)NCC(N)=O)CSCC(=O)N[C@@H](Cc2ccccc2)C(=O)N(C)[C@@H](Cc2ccccc2)C(=O)N1C [Example 3132] ({CH2CO}-F[NMeF][NMeNle][Sar]DV[Phe(2-Cl)]Y[Sar]WYLCG-NH2; thioether N-13) | – | – | 3780 nM | 2230 nM |
| CCCC[C@H]1C(=O)N(C)CC(=O)N[C@@H](CC(=O)O)C(=O)N[C@@H](C(C)C)C(=O)N[C@@H](Cc2ccccc2C)C(=O)N[C@@H](Cc2ccc(O)cc2)C(=O)N(C)CC(=O)N[C@@H](Cc2c[nH]c3ccccc23)C(=O)N[C@@H](Cc2ccc(O)cc2)C(=O)N[C@@H](CC(C)C)C(=O)N[C@H](C(=O)NCC(N)=O)CSCC(=O)N[C@@H](Cc2ccccc2)C(=O)N(C)[C@@H](Cc2ccccc2)C(=O)N1C [Example 3133] ({CH2CO}-F[NMeF][NMeNle][Sar]DV[Phe(2-Me)]Y[Sar]WYLCG-NH2; thioether N-13) | > 74.3 nM | > 30.5 nM | – | – |
| CCCC[C@H]1C(=O)N(C)CC(=O)N[C@@H](CC(=O)O)C(=O)N[C@@H](C(C)C)C(=O)N[C@@H](Cc2cccc(C)c2)C(=O)N[C@@H](Cc2ccc(O)cc2)C(=O)N(C)CC(=O)N[C@@H](Cc2c[nH]c3ccccc23)C(=O)N[C@@H](Cc2ccc(O)cc2)C(=O)N[C@@H](CC(C)C)C(=O)N[C@H](C(=O)NCC(N)=O)CSCC(=O)N[C@@H](Cc2ccccc2)C(=O)N(C)[C@@H](Cc2ccccc2)C(=O)N1C [Example 3134] ({CH2CO}-F[NMeF][NMeNle][Sar]DV[Phe(3-Me)]Y[Sar]WYLCG-NH2; thioether N-13) | > 74.3 nM | > 30.5 nM | – | – |

Reference: US9850283B2, “Macrocyclic inhibitors of the PD-1/PD-L1 and CD80(B7-1)/PD-L1 protein/protein interactions” (BRISTOL-MYERS SQUIBB COMPANY, priority 2013, dated 2017)
